According to patent US11440923B2, “Substituted macrocyclic indole derivatives” (Bayer Aktiengesellschaft, priority 2017, dated 2022):
Where a name gives a salt, the structure may show the parent alone. Read-outs that look alike come from different tables or passages of the source.

Assays:
Type in all cases: cell-based
SUDHL5 cells [1] = test: Induction of caspase-3/7 activity in SUDHL5 cells (Assay 4)
In short: (§1)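 Caspase-3/7 activity measured in DLBCL lines after 3 h compound exposure at 37 °C, following overnight plating; Caspase-Glo 3/7 luminescence read after 1 h at 37 °C. Medium-only background subtracted, values normalized to mean of DMSO-treated cells.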

SUDHL10 cells [2] = test: Induction of caspase-3/7 activity in SUDHL10 cells (Assay 4)
In short: as §1

[3] = target: MCL1 protein / biotinylated BIM BH3 peptide in RKO cells (Homo sapiens (Human), UniProt Q07820); test: PIxEL: protein-protein interaction in permeabilized cells by ELISA (Assay 5); conditions: PIxEL IC50 (median)
Sequence of MCL1 protein / biotinylated BIM BH3 peptide in RKO cells (Q07820 whole entry): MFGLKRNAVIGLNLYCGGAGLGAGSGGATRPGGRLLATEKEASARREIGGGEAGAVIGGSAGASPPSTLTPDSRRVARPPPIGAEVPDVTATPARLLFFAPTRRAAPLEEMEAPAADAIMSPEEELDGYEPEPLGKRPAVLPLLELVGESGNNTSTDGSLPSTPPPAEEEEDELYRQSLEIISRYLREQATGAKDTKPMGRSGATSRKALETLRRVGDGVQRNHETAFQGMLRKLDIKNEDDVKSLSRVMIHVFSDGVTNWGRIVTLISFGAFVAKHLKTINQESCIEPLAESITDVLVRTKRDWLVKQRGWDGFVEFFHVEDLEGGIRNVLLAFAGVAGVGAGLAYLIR
Method: PIxEL: Protein-Protein Interaction in Permeabilized Cells by ELISA
Most MCL1 protein molecules are localized at the mitochondria outer membrane and sequester pro-apoptotic proteins through binding of their BCL2 homology domain 3 (BH3 domain). MEB buffer (150 mM mannitol, 10 mM HEPES pH 7.5, 50 mM KCl, 20 μM EDTA, 20 μM EGTA, 5 mM potassium succinate, 0.1% protease-free BSA (SIGMA) with low dose digitonin (0.002%) permeabilizes plasma membrane while leaves live mitochondria, where MCL1 maintains its native localization and conformation. Unlike biophysical assays (e.g. TR-FRET) that use truncated recombinant MCL1 protein, this assay uses full length endogenous MCL1 protein at mitochondria outer membrane. It measures the interaction between MCL1 protein and biotinylated BIM BH3 peptide. Compounds can compete with BIM BH3 peptide to bind to MCL1 protein.
On day 1, RKO colon cancer cell line cells were plated at 0.8 million cells/ml, 100 μl/well in 96-well flat bottom TC plates (Corning). MCL1 antibody (Santa Cruz sc-12756) were diluted at 200 fold (final concentration 1 μg/ml) in carbonate buffer (Thermo Fisher Scientific, pH 9.6), and 50 μl of diluted antibody was added to each well of high bind ELISA plates ([…]). Each plate was tapped to make sure liquid covering entire bottom of wells and incubate at 37° C. overnight.
On the second day, MCL1 antibody was washed from ELISA plate. 250 μl Odyssey® Blocking Buffer (PBS) (Li-Cor) was added to each well, incubated at room temperature for at least 1 hour, then washed once with 250 μl 1×PBST. Plates with RKO cells were gently washed once with 100 μl/well PBS, once with 100 μl/well MEB buffer without digitonin, then 100 μl of MEB buffer with 0.002% digitonin was gently added to each well. Compounds were added with HP Tecan compound dispenser in 3-fold dilution series, highest dose 30 μM, 10-dose per compound in quadruplicates. Biotin-BIM peptide (synthesized by 21st Century) was added with HP Tecan compound dispenser at 0.2 μM immediately after the addition of compounds. Plates were rocked for 1 hour at room temperature. Then MEB buffer was aspirated and 50 μl of CHAPS buffer (50 mM Tris-Cl, pH 7.4, 150 mM NaCl, 1% CHAPS, 1 mM EDTA, 1 mM EGTA, cOmplete protease inhibitors (Roche), PhosSTOP (Roche)) was added to each well. Plates were rocked for 1 hour at 4° C., then 45 μl cell lysate from each well were transferred to ELISA plates coated with MCL1 antibody. Plates were incubated overnight in the cold room with rocking.
On the third day, ELISA plates were washed once with 250 μl 1×PBST. Streptavidin-poly-HRP (Thermo Fisher Scientific) was diluted to 20 ng/ml in Odyssey blocking buffer plus 0.05% Triton-100, and 100 μl was added to each well of the ELISA plate. Plates were incubated at room temperature for 1 hour with rocking, then washed with 100 μl 1×PBST for 3 times. Each SuperSignal ELISA Femto Maximum Sensitivity substrate was added to a 50-ml tube and mixed, then 100 μl of mixed substrate was added to each well. Plates were shaken for 1 minute then luminescence was measured by Envision plate reader […]. Signal of each well were normalized by no-compound control and no-cell control. IC50 was calculated using Graphic Pad PRISM software.

SUDHL5 cells [4] = test: Induction of cytotoxicity in SUDHL5 cells (Assay 6); conditions: 5 h, CellTiter-Glo; read-out: Cytotox SUDHL5 IC50 (median)
In short: (§2)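 Run alongside apoptosis measurements, this cytotoxicity readout used cells treated with compound for 5 h at 37 °C and quantified ATP-based luminescence with CellTiter-Glo.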

SUDHL10 cells [5] = test: Induction of cytotoxicity in SUDHL10 cells (Assay 6); conditions: 5 h, CellTiter-Glo; read-out: Cytotox SUDHL10 IC50 (median)
In short: as §2

SUDHL5 cells [6] = test: Antiproliferation assay SUDHL5 (Assay 7)
In short: (§3)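 72 h antiproliferation, 37 °C, CellTiter-Glo luminescence. Day 0 plate = CI; DMSO = C0; IC50 calculated from these.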

AMO-1 cells = test: Antiproliferation assay AMO-1 (Assay 7)
In short: as §3

HMC-1-8 cells = test: Antiproliferation assay HMC-1-8 (Assay 7)
In short: as §3

SNU-389 cells = test: Antiproliferation assay SNU-389 (Assay 7); conditions: 72 h, read-out: Antiproli SNU-389 IC50
Method: (§4) Assessment of the Anti-Proliferative Effect of Compounds in Different Cell Lines
(§5) The impact of compounds on the proliferation of different cell lines was assessed using the CellTiter-Glo® Luminescent Cell Viability reagent from Promega (G7573).
(§6) In parallel, cells were plated in a reference (day 0) plate for time zero determination. Cells were incubated in a humidified incubator at 37° C. overnight.
(§7) Rim wells were excluded. The cells were incubated for 72 h hours in a humidified incubator at 37° C. The day 0 plate was measured by adding 30 μL/well of CTG solution (CellTiter-Glo® Luminescent Cell Viability reagent, Promega G7573) to time zero wells in the reference plate followed by a 10 minutes incubation and luminescence reading at 0.1 ms. using the PHERAstar FS microplate reader (BMG Labtech).
(§8) After 72 h incubation, the treated plates were measured in the same way as the day 0 plate mentioned above. The Bella DRC Master Sheet was used to calculate IC50s, with CI=day 0 values and C0=DMSO control values.

SK-MEL-2 cells = test: Antiproliferation assay SK-MEL-2 (Assay 7); conditions: Homo sapiens, read-out: Antiproli SK-MEL-2 IC50 median
Method: as §4, §5, §6, §7, §8

SNU-16 cells = test: Antiproliferation assay SNU-16 (Assay 7); conditions: Homo sapiens, read-out: Antiproli SNU-16 IC50 median
Method: as §4, §5, §6, §7, §8

A-431 cells = test: Antiproliferation assay A-431 (Assay 7); conditions: Homo sapiens, read-out: Antiproli A-431 IC50 median
Method: as §4, §5, §6, §7, §8

PA-1 cells = test: Antiproliferation assay PA-1 (Assay 7); conditions: Homo sapiens, read-out: Antiproli PA-1 IC50 median
Method: as §4, §5, §6, §7, §8

DMS-114 cells = test: Antiproliferation assay DMS-114 (Assay 7); conditions: Homo sapiens, read-out: Antiproli DM-S114 IC50 median
Method: as §4, §5, §6, §7, §8

[7] = read-out: Caspase SUDHL5 EC50 (median); caspase-3/7 induction, 3 h
[8] = read-out: Caspase SUDHL10 EC50 (median); caspase-3/7 induction, 3 h
[9] = read-out: Antiproli SUDHL5 IC50 (median); 72 h, CellTiter-Glo
[10] = caspase-3/7 induction, 3 h; read-out: Caspase SUDHL5 EC50 (median)
[11] = caspase-3/7 induction, 3 h; read-out: Caspase SUDHL10 EC50 (median)
[12] = 72 h, CellTiter-Glo; read-out: Antiproli SUDHL5 IC50 (median)
[13] = 72 h, CellTiter-Glo; read-out: Antiproli AMO-1 IC50 median
[14] = 72 h, CellTiter-Glo; read-out: Antiproli HMC-1-8 IC50 median
[15] = DMS-114 cells, 72 h, CellTiter-Glo

Cc1c2c(nn1C)C(CCN1CCOCC1)OCCCCn1c(C(=O)O)c(CCCOc3cccc4ccccc34)c3ccc(F)c-2c31 (single isomer, unassigned; enantiomer 1) [Example 8, 4-fluoro-2,3-dimethyl-15-[2-(morpholin-4-yl)ethyl]-7-{3-[(naphthalen-1-yl)oxy]propyl}-2,10,11,12,13,15-hexahydropyrazolo[4′,3′:9,10][1,6]oxazacycloundecino[8,7,6-hi]indole-8-carboxylic Acid—N-ethylethanamine Salt (Enantiomer 1)]
EC50 (SUDHL5 cells [1]; [7]): 64 nM | EC50 (SUDHL10 cells [2]; [8]): 150 nM | IC50 [3]: 617 nM | IC50 (SUDHL5 cells [4]): 76 nM | IC50 (SUDHL10 cells [5]): 140 nM | IC50 (SUDHL5 cells [6]; [9]): 30 nM

CCc1c2c(nn1C)C(CCN1CCOCC1)N(C)CCCCn1c(C(=O)O)c(CCCOc3cccc4cc(F)ccc34)c3ccc(Cl)c-2c31 (single isomer, unassigned) [Example 94, 4-chloro-3-ethyl-7-{3-[(6-fluoronaphthalen-1-yl)oxy]propyl}-2,14-dimethyl-15-[2-(morpholin-4-yl)ethyl]-10,11,12,13,14,15-hexahydro-2H-pyrazolo[3′,4′:8,9][1,6]diazacycloundecino[10,11,1-hi]indole-8-carboxylic Acid]
EC50 (SUDHL5 cells [1]; [10]): 36 nM | EC50 (SUDHL10 cells [2]; [11]): 23 nM | IC50 (SUDHL5 cells [4]): 40 nM | IC50 (SUDHL5 cells [6]; [12]): 40 nM | IC50 (AMO-1 cells; [13]): 41.3 nM | IC50 (HMC-1-8 cells; [14]): 777 nM | IC50 (SNU-389 cells; CellTiter-Glo): 305 nM | IC50 (SK-MEL-2 cells; SK-MEL-2, 72 h, CellTiter-Glo): 299 nM | IC50 (SNU-16 cells; SNU-16, 72 h, CellTiter-Glo): 221 nM | IC50 (A-431 cells; A-431, 72 h, CellTiter-Glo): 361 nM | IC50 (PA-1 cells; PA-1, 72 h, CellTiter-Glo): 218 nM | IC50 (DMS-114 cells; [15]): 133 nM

CCc1c2c(nn1C)C(CCN1CCN(C)CC1)OCCCCn1c(C(=O)O)c(CCCOc3cccc4cc(F)ccc34)c3ccc(Cl)c-2c31 (single isomer, unassigned; stereoisomer 1) [Example 69, (+)-4-chloro-3-ethyl-7-{3-[(6-fluoronaphthalen-1-yl)oxy]propyl}-2-methyl-15-[2-(4-methylpiperazin-1-yl)ethyl]-2,10,11,12,13,15-hexahydropyrazolo[4′,3′:9,10][1,6]oxazacycloundecino[8,7,6-hi]indole-8-carboxylic Acid—N-ethylethanamine Salt (Stereoisomer 1)]
EC50 (SUDHL5 cells [1]; [7]): 250 nM | EC50 (SUDHL10 cells [2]; [8]): 150 nM | IC50 (SUDHL5 cells [4]): 310 nM | IC50 (SUDHL10 cells [5]): 300 nM | IC50 (SUDHL5 cells [6]; [9]): 240 nM | IC50 (AMO-1 cells; read-out: Antiproli AMO-1 IC50 median; 72 h, CellTiter-Glo): 212 nM | IC50 (HMC-1-8 cells; read-out: Antiproli HMC-1-8 IC50 median; 72 h, CellTiter-Glo): 4460 nM | IC50 (SNU-389 cells): 2410 nM | IC50 (SK-MEL-2 cells; SK-MEL-2, 72 h): 1810 nM | IC50 (SNU-16 cells; SNU-16, 72 h): 1490 nM | IC50 (A-431 cells; A-431, 72 h): 1660 nM | IC50 (PA-1 cells; PA-1, 72 h): 795 nM | IC50 (DMS-114 cells; DMS-114, 72 h): 762 nM

CCc1c2c(nn1C)C(CCN1CCOCC1)OCC(F)(F)CCn1c(C(=O)O)c(CCCOc3cccc4cc(F)ccc34)c3ccc(Cl)c-2c31 (single isomer, unassigned; (+)) [Example 90, (+)-4-chloro-3-ethyl-12,12-difluoro-7-{3-[(6-fluoronaphthalen-1-yl)oxy]propyl}-2-methyl-15-[2-(morpholin-4-yl)ethyl]-2,10,11,12,13,15-hexahydropyrazolo[4′,3′:9,10][1,6]oxazacycloundecino[8,7,6-hi]indole-8-carboxylic Acid]
EC50 (SUDHL5 cells [1]; [10]): 27 nM | EC50 (SUDHL10 cells [2]; [11]): 13 nM | IC50 (SUDHL5 cells [4]): 30 nM | IC50 (SUDHL5 cells [6]; [12]): 30 nM | IC50 (AMO-1 cells; [13]): 24.2 nM | IC50 (HMC-1-8 cells; [14]): 416 nM | IC50 (SNU-389 cells; CellTiter-Glo): 141 nM | IC50 (SK-MEL-2 cells; SK-MEL-2, 72 h, CellTiter-Glo): 252 nM | IC50 (SNU-16 cells; SNU-16, 72 h, CellTiter-Glo): 1110 nM | IC50 (A-431 cells; A-431, 72 h, CellTiter-Glo): 209 nM | IC50 (PA-1 cells; PA-1, 72 h, CellTiter-Glo): 422 nM | IC50 (DMS-114 cells; [15]): 163 nM
